Here are results for 17 compounds from US6218406A, “Farnesyl transferase inhibitors, their preparation, the pharmaceutical compositions which contain them and their use in the preparation of medicaments” (Aventis Pharma S.A., priority 1996, dated 2001).

As a reminder, the pIC50 is the IC50 on a negative log10 scale, so that one unit is a factor of ten.

The structures appear in SMILES notation. pIC50: −log10 of the molar value.

The target in the assay is farnesyl transferase (Homo sapiens, UniProt P49354+P49356). Put plainly: Farnesyl transferase inhibition, [3H]-farnesylation of biotinylated K-ras C-terminal peptide (SPA assay). It is filed as biochemical. The following applies: K-Ras substrate; 60 min at 37° C.; mean of two IC50 values; read-out: In vitro inhibitory activity (K-Ras) IC50. The protocol: The farnesyl transferase activity was measured by the amount farnesylated of K-ras substrate or of substrate derived from the peptide corresponding to its C-terminal part, the farnesyl group being introduced by farnesyl pyrophosphate (FPP).
It was then brought into contact with PVT-streptavidin (Amersham)® beads and was quantified by proximity scintillation (SPA assay) between the tritium and the PVT beads, by virtue of the streptavidin/biotin interaction.
Experimentally, farnesyl transferase purified according to the appended protocol was diluted, for this assay, to a concentration such that a consumption of substrates of less than 30% was obtained.
The reaction, carried out in Optiplates 96° microtitration plates, was initiated by the enzyme and lasted sixty minutes at 37° C. It was stopped by addition of 150 μl of mixture of a blocking buffer at pH 4 composed of 0.2M H3 PO4, 1.5 mM MgCl2, 0.5% (w/v) BSA, 0.05% (w/v) sodium azide containing 200 μg of PVT-streptavidin beads.
After slow agitation for thirty minutes (in order to remove the chemiluminescence), the plates were read as [^3 H]CPM in a Top Count® (Packard) scintillation counter for microplates, where they were converted into [^3 H]DPM from a range of coloured agent attenuating the scintillation (quenching).
The percentages of inhibition were calculated with respect to an inhibitor-free control after subtraction from all the values of that of a blank which only contained the substrates and the buffer.
The IC50 values were calculated or measured, from the inhibitions obtained at nine different concentrations, with Enzfitter® or Grafit® software. The IC50 values which appear in the results are the mean of measurements and calculations of two IC50 values.

Turning to `C=C(C(=O)N1C[C@@H]2[C@]3(c4ccc(C)cc4)CC[C@@H](c4ccccc43)[C@]2(C(=O)OC)C1)c1ccccc1OC` (racemic) [Example 1, methyl (3aRS,4SR,9SR,9aRS)-4,9-ethano-2-[2-(2-methoxyphenyl)propenoyl]-9-(4-methylphenyl)-2,3,3a,4,9,9a-hexahydro-1H-benzo[f]isoindole-3a-carboxylate], the pIC50 was 6.52. With `C=C(C(=O)N1C[C@@H]2[C@@]3(c4ccc(C)cc4)CC[C@@H](c4ccccc43)[C@]2(C(=O)O)C1)c1ccccc1OC` (racemic) [Example 2, (3aRS,4SR,9RS,9aRS)-4,9-ethano-2-[2-(2-methoxyphenyl)propenoyl]-9-(4-methylphenyl)-2,3,3a,4,9,9a-hexahydro-1H-benzo[f]isoindole-3a-carboxylic Acid], the pIC50 is 7.35. Regarding `COC(=O)[C@@]12CN(C(=O)Cc3ccccc3OC)C[C@@H]1[C@]1(c3ccc(C)c(C)c3)CC[C@H]2c2ccccc21` (racemic) [Example 11, Methyl (3aRS,4SR,9SR,9aRS)-9-(3,4-dimethylphenyl)-4,9-ethano-2-[(2-methoxyphenyl)acetyl]-2,3,3a,4,9,9a-hexahydro-1H-benzo[f]isoindole-3a-carboxylate], the pIC50 was 6.46. Under `COc1ccccc1CC(=O)N1C[C@@H]2[C@]3(c4ccc(C)c(C)c4)CC[C@@H](c4ccccc43)[C@]2(C(=O)O)C1` (racemic) [Example 12, (3aRS,4SR,9SR,9aRS)-9-(3,4-dimethyl-phenyl)-4,9-ethano-2-[(2-methoxyphenyl)acetyl]-2,3,3a,4,9,9a-hexahydro-1H-benzo[f]isoindole-3a-carboxylic Acid] stands 7.35; under `C=C(C(=O)N1C[C@@H]2[C@]3(c4ccc(C)cc4)CC[C@@H](c4ccccc43)[C@]2(C(=O)NOCc2ccccc2)C1)c1ccccc1OC` (racemic) [Example 14, benzyl (3aRS,4SR,9SR,9aRS)-4,9-ethano-2-[2-(2-methoxyphenyl)propenoyl]-9-(4-methylphenyl)-2,3,3a,4,9,9a-hexahydro-1H-benzo[f]isoindole-3a-hydroxamate], 6.68. The result for `C=C(C(=O)N1C[C@@H]2[C@]3(c4ccc(C)cc4)CC[C@@H](c4ccccc43)[C@]2(C(N)=O)C1)c1ccccc1OC` (racemic) [Example 15, (3aRS,4SR,9SR,9aRS)-3a-carbamoyl-4,9-ethano-2-[2-(2-methoxyphenyl)propenoyl]-9-(4-methylphenyl)-2,3,3a,4,9,9a-hexahydro-1H-benzo[f]isoindole] reads 6.77; that for `C=C(C(=O)N1C[C@@H]2[C@]3(c4ccc(C)cc4)CC[C@@H](c4ccccc43)[C@]2(C(=O)NO)C1)c1ccccc1OC` (racemic) [Example 16, (3aRS,4SR,9SR,9aRS)-4,9-ethano-2-[2-(2-methoxyphenyl)propenoyl]-9-(4-methylphenyl)-2,3,3a,4,9,9a-hexahydro-1H-benzo[f]isoindole-3a-hydroxamic acid], 6.44.

For the compound `C=C(C(=O)N1C[C@@H]2[C@]3(c4ccc(C)cc4)CC[C@@H](c4ccccc43)[C@]2(C(=O)NOC)C1)c1ccccc1OC` (racemic) [Example 21, Methyl (3aRS,4SR,9SR,9aRS)-4,9-ethano-2-[2-(2-methoxyphenyl)propenoyl]-9-(4-methylphenyl)-2,3,3a,4,9,9a-hexahydro-1H-benzo[f]isoindole-3a-hydroxamate], the pIC50 is 6.95.

For `C=C(C(=O)N1C[C@@H]2[C@]3(c4ccc(C)cc4)CC[C@@H](c4ccccc43)[C@]2(C(=O)NS(=O)(=O)c2ccccc2)C1)c1ccccc1OC` (racemic) [Example 25, (3aRS,4SR,9SR,9aRS)-4,9-ethano-2-[2-(2-methoxyphenyl)propenoyl]-9-(4-methylphenyl)-3a-phenylsulphonylaminocarbonyl-2,3,3a,4,9,9a-hexahydro-1H-benzo[f]isoindole], the pIC50 is 6.71. On to `C=C(C(=O)N1C[C@@H]2[C@]3(c4ccc5c(c4)OCCO5)CC[C@@H](c4ccccc43)[C@]2(C(=O)OC)C1)c1ccccc1OC` (racemic) [Example 31, methyl (3aRS,4SR,9SR,9aRS)-9-(2,3-dihydro-1,4-benzodioxin-6-yl)-4,9-ethano-2-[2-(2-methoxyphenyl)propenoyl]-2,3,3a,4,9,9a-hexahydro-1H-benzo[f]isoindole-3a-carboxylate], for which the pIC50 is 7.00. `C=C(C(=O)N1C[C@@H]2[C@]3(c4ccc5c(c4)OCCO5)CC[C@@H](c4ccccc43)[C@]2(C(=O)O)C1)c1ccccc1OC` (racemic) [Example 32, (3aRS,4SR,9SR,9aRS)-9-(2,3-dihydro-1,4-benzodioxin-6-yl)-4,9-ethano-2-[2-(2-methoxyphenyl)-propenoyl]-2,3,3a,4,9,9a-hexahydro-1H-benzo[f]isoindole-3a-carboxylic Acid]: the pIC50 is 6.97. On to `COc1ccccc1CC(=O)N1C[C@@H]2[C@]3(c4cc(C)c(C)c(C)c4)CC[C@@H](c4ccccc43)[C@]2(C(=O)O)C1` (racemic) [Example 37, (3aRS,4SR,9SR,9aRS)-4,9-ethano-2-[(2-methoxyphenyl)acetyl]-9-(3,4,5-trimethylphenyl)-2,3,3a,4,9,9a-hexahydro-1H-benzo[f]isoindole-3a-carboxylic Acid], for which the pIC50 was 7.06. Turning to `C=C(C(=O)N1C[C@@H]2[C@]3(c4ccccc4C)CC[C@@H](c4ccccc43)[C@]2(C(=O)O)C1)c1ccccc1OC` (racemic) [Example 38, (3aRS,4SR,9SR,9aRS)-4,9-ethano-2-[2-(2-methoxyphenyl)propenoyl]-9-(2-methylphenyl)-2,3,3a,4,9,9a-hexahydro-1H-benzo[f]isoindole-3a-carboxylic Acid], the pIC50 was 7.00. Under `C=C(C(=O)N1C[C@@H]2[C@]3(c4ccc(C(F)(F)F)cc4)CC[C@@H](c4ccccc43)[C@]2(C(=O)OC)C1)c1ccccc1OC` (racemic) [Example 39, methyl (3aRS,4SR,9SR,9aRS)-4,9-ethano-2-[2-(2-methoxyphenyl)propenoyl]-9-[4-(trifluoromethyl)phenyl]-2,3,3a,4,9,9a-hexahydro-1H-benzo[f]isoindole-3a-carboxylate] stands 6.56; under `C=C(C(=O)N1C[C@@H]2[C@]3(c4ccc(C(F)(F)F)cc4)CC[C@@H](c4ccccc43)[C@]2(C(=O)O)C1)c1ccccc1OC` (racemic) [Example 40, (3aRS,4SR,9SR,9aRS)-4,9-ethano-2-[2-(2-methoxyphenyl)propenoyl]-9-[4-(trifluoromethyl)phenyl]-2,3,3a,4,9,9a-hexahydro-1H-benzo[f]isoindole-3a-carboxylic Acid], 7.08. The result for `C=C(C(=O)N1C[C@@H]2[C@]3(c4ccc5ccccc5c4)CC[C@@H](c4ccccc43)[C@]2(C(=O)OC)C1)c1ccccc1OC` (racemic) [Example 45, methyl (3aRS,4SR,9SR,9aRS)-4,9-ethano-2-[2-(2-methoxyphenyl)propenoyl]-9-(2-naphthyl)-2,3,3a,4,9,9a-hexahydro-1H-benzo[f]isoindole-3a-carboxylate] reads 6.74; that for `C=C(C(=O)N1C[C@H]2[C@@]3(c4ccc(C)s4)CC[C@@H](c4ccccc43)[C@]2(C(=O)OC)C1)c1ccccc1OC` (racemic) [Example 47, methyl (3aRS,4SR,9SR,9aRS)-4,9-ethano-2-[2-(2-methoxyphenyl)propenoyl]-9-(5-methyl-2-thienyl)-2,3,3a,4,9,9a-hexahydro-1H-benzo[f]isoindole-3a-carboxylate], 6.68.
